Data as given in patent US20100015126A1, “Methods of Binding of Cross-Beta Structures By Chaperones” (priority 2006, published 2010).

Key:
[1] = biological target: T1, Escherichia coli HSP70 family member DnaK (Escherichia coli, UniProt P0A6Y8); test: Competition ELISA: DnaK binding under influence of ThT and Congo red; settings: 20 μg/ml DnaK; 1 mM dye
T1 construct: purchased Stressgen (Ann Arbor, Mich., USA) SPP-630
Protocol: Binding of chaperones to immobilized (misfolded) protein ligands was determined using an enzyme linked immuno sorbent assay (ELISA) approach. For this purpose 50 μl/well of potential ligands at indicated concentrations or coat buffer only for control and background measurement purposes, were coated overnight at 4° C. or coated for 1 h at room temperature, with motion, in 50 mM NaHCO3 pH 9.6 (coat buffer). In general, ligands were coated at 5 μg/ml, unless stated otherwise. For example, BiP binding peptides 6BB# and oxLDL were coated at 50 μg/ml. Native haemoglobin (Sigma-Aldrich, H7379), albumin, IgIV Gammagard and ovalbumin controls were prepared from lyophilized stocks. The controls were prepared by dissolving lyophilized proteins at 1 mg/ml in PBS upon resuspending by pipetting, followed by a 30 minutes period at the roller device, at room temperature. The protein solutions were centrifuged for 10 minutes at 16,000*g and diluted in coat buffer. After coating the plates were washed at least three times with 50 mM Tris-HCl pH 7.3, 150 mM NaCl, 0.1% v/v Tween20, and blocked with Blocking reagent (Roche Diagnostics, Almere, The Netherlands; 11112589001), for 1 h at room temperature, with motion. Plates were washed three times and incubated in triplicate with indicated chaperone dilution series, at 50 μl/well, for 1 h at room temperature, with constant motion. For HSP90, 5 mM DTT is incorporated in the binding buffer (PBS/0.1% Tween20) to avoid unwanted disulfide bond formation of the HSP90. Plates were washed three times and incubated with anti-FLAG antibody (mouse antibody, M2, peroxidase conjugate; Sigma, A-8592) for BiP-FLAG-His, anti-His-tag antibody (Mouse Monoclonal Antibody, Cat. No. 70796, Novagen [0.2 mg/ml]) for HSP60, a 1:1 mix of 500-fold diluted anti-HSP90beta antibodies (Stressgen, SPA-643 [mouse monoclonal IgM], SPA-646 [rabbit polyclonal]) for HSP90 and an anti-DnaK antibody (Stressgen, 023SPA-880D [mouse monoclonal antibody]) for DnaK. After four wash cycles, secondary antibodies were added to the wells when required, 50 μl/well, for 45′ at room temperature, with motion. RAMPO and SWARPO were used at 3000 times dilution. […] In a second experiment with more immobilized misfolded proteins and controls, the detection of bound HSP90 with the mix of two anti-HSP90 antibodies was achieved by mixing 1:1500 SWARPO with 1:3000 RAMPO. After 5 washes with wash buffer followed by two washes with PBS, binding of antibodies was assessed. […] Plates were read at 450 nm. Triplicates were averaged and standard deviations calculated. […] Subsequently, sub-optimal concentrations of chaperones for binding to misfolded protein ligands are determined, and these concentrations are used for inhibition studies. […]

[2] = biological target: T2, recombinant human HSP90beta (Homo sapiens, UniProt P08238); test: Competition ELISA: HSP90 binding under influence of crossbeta binding compounds and geldanamycin; settings: 20 μg/ml HSP90, geldanamycin 10 μM; for Binding of HSP90 to coated Aβ25-35 under influence of compound: sRAGE 79 μg/ml, HSA 10 μM
T2 construct: purchased Dr. S. Rüdiger, Cellular Protein Chemistry, Utrecht University
Protocol: Binding of chaperones to immobilized (misfolded) protein ligands was determined using an enzyme linked immuno sorbent assay (ELISA) approach. For this purpose 50 μl/well of potential ligands at indicated concentrations or coat buffer only for control and background measurement purposes, were coated overnight at 4° C. or coated for 1 h at room temperature, with motion, in 50 mM NaHCO3 pH 9.6 (coat buffer). In general, ligands were coated at 5 μg/ml, unless stated otherwise. […] Native haemoglobin (Sigma-Aldrich, H7379), albumin, IgIV Gammagard and ovalbumin controls were prepared from lyophilized stocks. The controls were prepared by dissolving lyophilized proteins at 1 mg/ml in PBS upon resuspending by pipetting, followed by a 30 minutes period at the roller device, at room temperature. The protein solutions were centrifuged for 10 minutes at 16,000*g and diluted in coat buffer. […] Plates were washed three times and incubated in triplicate with indicated chaperone dilution series, at 50 μl/well, for 1 h at room temperature, with constant motion. For HSP90, 5 mM DTT is incorporated in the binding buffer (PBS/0.1% Tween20) to avoid unwanted disulfide bond formation of the HSP90. […] After four wash cycles, secondary antibodies were added to the wells when required, 50 μl/well, for 45′ at room temperature, with motion. RAMPO and SWARPO were used at 3000 times dilution. […] In a second experiment with more immobilized misfolded proteins and controls, the detection of bound HSP90 with the mix of two anti-HSP90 antibodies was achieved by mixing 1:1500 SWARPO with 1:3000 RAMPO. After 5 washes with wash buffer followed by two washes with PBS, binding of antibodies was assessed. […] The reaction was stopped after 5 minutes with 1% H2SO4 in H2O. Plates were read at 450 nm. Triplicates were averaged and standard deviations calculated. Background signals obtained with buffer-coated wells were subtracted (binding of primary antibody to empty wells), as well as background signals obtained with ligand-coated wells in which the chaperones were omitted (binding of primary and secondary antibody to coated ligands). Subsequently, sub-optimal concentrations of chaperones for binding to misfolded protein ligands are determined, and these concentrations are used for inhibition studies.

T1 sequence (P0A6Y8 whole entry): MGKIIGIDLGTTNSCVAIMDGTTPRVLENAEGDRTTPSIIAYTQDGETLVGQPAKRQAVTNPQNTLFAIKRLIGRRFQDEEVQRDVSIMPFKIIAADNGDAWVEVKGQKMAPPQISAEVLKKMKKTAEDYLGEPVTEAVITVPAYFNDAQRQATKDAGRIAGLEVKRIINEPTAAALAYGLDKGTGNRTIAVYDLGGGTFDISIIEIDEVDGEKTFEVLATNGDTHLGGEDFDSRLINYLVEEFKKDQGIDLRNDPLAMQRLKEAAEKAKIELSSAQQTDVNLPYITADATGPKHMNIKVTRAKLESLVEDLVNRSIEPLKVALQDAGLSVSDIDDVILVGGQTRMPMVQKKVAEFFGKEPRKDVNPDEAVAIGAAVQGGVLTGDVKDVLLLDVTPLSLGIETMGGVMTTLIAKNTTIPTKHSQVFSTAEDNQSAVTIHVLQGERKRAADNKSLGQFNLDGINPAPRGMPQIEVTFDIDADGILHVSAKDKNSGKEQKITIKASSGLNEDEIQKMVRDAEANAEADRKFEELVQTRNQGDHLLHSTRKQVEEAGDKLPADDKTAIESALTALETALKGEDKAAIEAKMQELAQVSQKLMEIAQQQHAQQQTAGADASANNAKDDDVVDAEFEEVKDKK
T2 sequence (P08238 whole entry): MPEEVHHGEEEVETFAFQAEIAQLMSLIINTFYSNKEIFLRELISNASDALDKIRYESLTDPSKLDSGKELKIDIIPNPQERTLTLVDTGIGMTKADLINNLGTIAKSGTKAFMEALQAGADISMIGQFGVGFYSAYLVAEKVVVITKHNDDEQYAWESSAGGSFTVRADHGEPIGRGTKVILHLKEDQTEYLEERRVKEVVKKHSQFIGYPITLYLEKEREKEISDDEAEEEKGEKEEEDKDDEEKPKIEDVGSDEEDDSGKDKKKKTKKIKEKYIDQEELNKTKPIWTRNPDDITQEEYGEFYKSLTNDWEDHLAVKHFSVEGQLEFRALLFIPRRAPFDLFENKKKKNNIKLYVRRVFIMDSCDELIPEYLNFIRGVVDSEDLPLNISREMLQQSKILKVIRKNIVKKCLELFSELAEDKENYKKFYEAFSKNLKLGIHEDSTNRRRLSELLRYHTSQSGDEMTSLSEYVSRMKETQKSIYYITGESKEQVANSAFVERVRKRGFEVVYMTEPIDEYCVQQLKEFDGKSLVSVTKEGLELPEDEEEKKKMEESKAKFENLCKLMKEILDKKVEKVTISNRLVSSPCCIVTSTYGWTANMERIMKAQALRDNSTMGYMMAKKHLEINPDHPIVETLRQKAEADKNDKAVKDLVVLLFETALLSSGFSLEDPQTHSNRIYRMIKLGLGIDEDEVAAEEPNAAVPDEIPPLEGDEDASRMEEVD

Row | SMILES | Binding of DnaK to immobilized HbAGE under influence of compound [1] | Binding of DnaK to immobilized dIgIV-86 under influence of compound [1] | Binding of HSP90 to coated HbAGE under influence of compound [2] | Binding of HSP90 to coated Aβ25-35 under influence of compound [2]
1 | Nc1c(/N=N/c2ccc(-c3ccc(/N=N/c4cc(S(=O)(=O)O)c5ccccc5c4N)cc3)cc2)cc(S(=O)(=O)O)c2ccccc12 [Congo red] | inhibit | inhibit | inhibited | stimulatory activity
2 | Cc1ccc2c(c1)sc(-c1ccc(N(C)C)cc1)[n+]2C.[Cl-] [ThT, Thioflavin T] | inhibit | inhibit | had no influence | stimulatory activity
